# According to article PMC6017062, “Probing the Inhibitor versus Chaperone Properties of sp^2-Iminosugars towards Human β-Glucocerebrosidase: A Picomolar Chaperone for Gaucher Disease” (Molecules : A Journal of Synthetic Chemistry and Natural …, 2018):
# Where two headings read alike, the source gives them in different places.
# Assays:
# [1] = target: T1, amyloglucosidase (α-Glcase3) (Aspergillus niger, UniProt P69328); assay: Commercial glycosidase inhibition: amyloglucosidase (α-Glcase3); format: biochemical; conditions: mean ± SD, three determinations; competitive; n.i. = no inhibition detected at 1 mM
# T1 construct: purchased
# T1 sequence (P69328 25-640): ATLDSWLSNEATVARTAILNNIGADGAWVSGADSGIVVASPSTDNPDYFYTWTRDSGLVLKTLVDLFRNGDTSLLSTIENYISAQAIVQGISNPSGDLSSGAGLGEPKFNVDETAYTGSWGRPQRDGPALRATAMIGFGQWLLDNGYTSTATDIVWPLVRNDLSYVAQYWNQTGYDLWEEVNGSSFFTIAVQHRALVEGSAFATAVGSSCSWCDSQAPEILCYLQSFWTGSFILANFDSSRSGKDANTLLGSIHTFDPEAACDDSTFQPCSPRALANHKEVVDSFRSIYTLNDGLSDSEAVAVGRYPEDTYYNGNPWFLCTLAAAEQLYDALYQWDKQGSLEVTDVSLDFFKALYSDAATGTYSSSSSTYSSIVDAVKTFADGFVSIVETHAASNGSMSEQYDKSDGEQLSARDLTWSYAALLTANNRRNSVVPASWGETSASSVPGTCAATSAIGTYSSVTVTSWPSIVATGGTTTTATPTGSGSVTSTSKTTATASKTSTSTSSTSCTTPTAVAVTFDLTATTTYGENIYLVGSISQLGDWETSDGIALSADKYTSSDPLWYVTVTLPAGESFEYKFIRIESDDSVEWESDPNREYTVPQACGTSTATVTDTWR
# Description: (§1) We first evaluated the inhibitory properties of the new nonreducing mono- and bicyclic sp^2-iminosugars 4–15 against a panel of commercial glycosidases that included the α-glucosidases maltase (yeast maltase; α-Glcase1) and isomaltase (α-Glcase2) from Saccharomyces cerevisiae and amyloglucosidase (α-Glcase3) from Aspergillus niger, the β-glucosidases from almonds (β-Glcase1) and bovine liver (β-Glcase2), the α-galactosidase from green coffee beans (α-Galase), the β-galactosidase from Escherichia coli (β-Galase), and the α-mannosidase from Jack bean (α-Manase).
# (§2) Inhibition constant (Ki) values were determined by spectrophotometrically measuring the residual hydrolytic activities of the glycosidases against the respective o- (for β-galactosidase from E. coli) or p-nitrophenyl α- or β-D-glycopyranoside (for other glycosidases) in the presence of the iminosugars. Each assay was performed in phosphate buffer or phosphate-citrate buffer (for α- or β-mannosidase and amyloglucosidase) at the optimal pH for the enzymes. The reactions were initiated by addition of the enzyme to a solution of the substrate in the absence or presence of various inhibitor concentrations. The mixture was incubated for 10–30 min at 37 °C or 55 °C (for amyloglucosidase) and the reaction was quenched by addition of 1 M Na2CO3. Reaction times were appropriate to obtain 10–20% conversion of the substrate in order to achieve linear rates. The absorbance of the resulting mixture was determined at 405 nm. Approximate value of Ki was determined from the slope of Dixon plots using a fixed concentration of substrate (around the Km value for the different glycosidases) and various concentrations of inhibitor. Full Ki determinations and enzyme inhibition mode were determined from the slope of Lineweaver–Burk plots and double reciprocal analysis.
# [2] = target: β-glucosidase from almonds (β-Glcase1); assay: Commercial glycosidase inhibition: β-glucosidase from almonds (β-Glcase1); format: biochemical; conditions: mean ± SD, three determinations; competitive; n.i. = no inhibition detected at 1 mM
# Description: as §1, §2
# [3] = target: T2, α-galactosidase from green coffee beans (α-Galase) (Coffea arabica, UniProt Q42656); assay: Commercial glycosidase inhibition: α-galactosidase from green coffee beans (α-Galase); format: biochemical; conditions: mean ± SD, three determinations; competitive; n.i. = no inhibition detected at 1 mM
# T2 construct: purchased
# T2 sequence (Q42656 16-378): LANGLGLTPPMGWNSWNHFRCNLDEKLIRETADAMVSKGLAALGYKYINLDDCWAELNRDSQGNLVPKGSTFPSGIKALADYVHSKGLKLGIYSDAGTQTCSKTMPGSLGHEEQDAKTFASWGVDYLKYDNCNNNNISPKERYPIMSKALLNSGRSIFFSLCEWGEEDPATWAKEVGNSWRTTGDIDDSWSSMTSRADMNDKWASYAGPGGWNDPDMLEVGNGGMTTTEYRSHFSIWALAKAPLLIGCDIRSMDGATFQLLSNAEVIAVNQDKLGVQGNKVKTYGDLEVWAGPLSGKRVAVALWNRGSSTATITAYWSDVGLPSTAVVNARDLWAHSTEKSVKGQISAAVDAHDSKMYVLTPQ
# Description: as §1, §2
# [4] = target: T3, β-galactosidase (β-Galase) (Escherichia coli, UniProt P00722); assay: Commercial glycosidase inhibition: β-galactosidase from E. coli (β-Galase); format: biochemical; conditions: mean ± SD, three determinations; competitive; n.i. = no inhibition detected at 1 mM
# T3 construct: purchased
# T3 sequence (P00722 2-1024 limits assumed): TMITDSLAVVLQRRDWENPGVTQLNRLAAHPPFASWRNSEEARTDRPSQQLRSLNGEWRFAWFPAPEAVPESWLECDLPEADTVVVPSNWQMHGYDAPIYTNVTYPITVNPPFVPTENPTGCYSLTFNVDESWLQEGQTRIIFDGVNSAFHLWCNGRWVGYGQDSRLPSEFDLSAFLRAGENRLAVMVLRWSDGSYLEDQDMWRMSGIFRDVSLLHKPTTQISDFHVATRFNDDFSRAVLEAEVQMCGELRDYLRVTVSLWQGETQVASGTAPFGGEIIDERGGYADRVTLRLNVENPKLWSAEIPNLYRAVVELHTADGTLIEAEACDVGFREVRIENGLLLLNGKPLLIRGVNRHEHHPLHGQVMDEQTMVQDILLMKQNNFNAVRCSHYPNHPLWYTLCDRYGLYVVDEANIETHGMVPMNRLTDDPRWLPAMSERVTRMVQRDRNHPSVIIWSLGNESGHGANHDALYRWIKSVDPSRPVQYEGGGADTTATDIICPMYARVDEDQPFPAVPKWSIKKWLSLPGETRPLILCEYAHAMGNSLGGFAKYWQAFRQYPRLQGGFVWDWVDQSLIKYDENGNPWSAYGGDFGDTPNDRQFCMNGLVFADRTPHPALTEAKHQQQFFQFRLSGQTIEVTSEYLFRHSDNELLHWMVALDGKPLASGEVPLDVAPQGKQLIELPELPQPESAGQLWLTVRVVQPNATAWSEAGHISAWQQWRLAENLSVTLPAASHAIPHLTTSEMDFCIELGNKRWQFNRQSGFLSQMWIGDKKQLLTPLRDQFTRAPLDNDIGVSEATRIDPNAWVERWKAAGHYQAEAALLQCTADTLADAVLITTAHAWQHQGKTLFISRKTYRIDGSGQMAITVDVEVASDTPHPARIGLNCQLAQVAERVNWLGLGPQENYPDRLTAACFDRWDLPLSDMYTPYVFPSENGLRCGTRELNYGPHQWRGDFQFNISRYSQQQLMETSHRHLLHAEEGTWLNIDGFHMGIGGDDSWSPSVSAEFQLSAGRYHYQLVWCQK
# Description: as §1, §2
# [5] = target: T4, α-mannosidase from Jack bean (α-Manase) (Canavalia ensiformis, UniProt C0HJB3); assay: Commercial glycosidase inhibition: α-mannosidase from Jack bean (α-Manase); format: biochemical; conditions: mean ± SD, three determinations; competitive; n.i. = no inhibition detected at 1 mM
# T4 construct: purchased
# T4 sequence (C0HJB3 1-981): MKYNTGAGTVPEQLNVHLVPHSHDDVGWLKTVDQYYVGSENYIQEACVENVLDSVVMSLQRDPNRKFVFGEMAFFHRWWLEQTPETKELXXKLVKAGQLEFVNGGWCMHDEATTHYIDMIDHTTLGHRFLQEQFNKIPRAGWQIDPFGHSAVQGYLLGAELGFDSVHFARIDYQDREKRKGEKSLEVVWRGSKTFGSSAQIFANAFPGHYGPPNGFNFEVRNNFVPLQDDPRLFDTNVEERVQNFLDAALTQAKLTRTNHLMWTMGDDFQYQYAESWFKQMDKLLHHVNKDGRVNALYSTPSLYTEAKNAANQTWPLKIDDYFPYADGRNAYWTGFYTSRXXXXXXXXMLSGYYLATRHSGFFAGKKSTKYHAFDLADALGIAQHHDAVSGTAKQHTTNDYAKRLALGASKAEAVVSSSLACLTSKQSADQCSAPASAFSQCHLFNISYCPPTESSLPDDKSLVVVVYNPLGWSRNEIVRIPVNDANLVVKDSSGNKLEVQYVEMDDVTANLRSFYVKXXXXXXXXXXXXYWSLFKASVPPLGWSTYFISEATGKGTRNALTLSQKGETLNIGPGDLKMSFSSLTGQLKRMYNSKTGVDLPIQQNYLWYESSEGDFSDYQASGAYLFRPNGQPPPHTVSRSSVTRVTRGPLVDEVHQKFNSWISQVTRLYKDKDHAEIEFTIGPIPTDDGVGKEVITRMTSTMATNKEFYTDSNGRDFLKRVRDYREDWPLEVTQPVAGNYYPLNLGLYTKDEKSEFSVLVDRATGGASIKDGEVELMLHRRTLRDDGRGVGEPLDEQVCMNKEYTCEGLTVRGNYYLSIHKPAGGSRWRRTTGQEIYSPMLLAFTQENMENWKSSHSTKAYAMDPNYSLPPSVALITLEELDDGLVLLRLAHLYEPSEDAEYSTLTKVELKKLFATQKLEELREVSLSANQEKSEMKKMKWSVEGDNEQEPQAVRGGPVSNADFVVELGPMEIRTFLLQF
# Description: as §1, §2
# [6] = target: T5, human β-glucocerebrosidase (GCase) (Homo sapiens, UniProt P04062, R534H); assay: Purified recombinant human GCase inhibition in vitro; format: biochemical; conditions: for Ki: purified recombinant enzyme (Cerezyme), 4-MU glucopyranoside substrate
# T5 construct: purchased Genzyme (Genzyme Japan, Tokyo, Japan) / Sanofi Genzyme, Cambridge, MA, USA Cerezyme
# T5 sequence (P04062 40-536 R534H): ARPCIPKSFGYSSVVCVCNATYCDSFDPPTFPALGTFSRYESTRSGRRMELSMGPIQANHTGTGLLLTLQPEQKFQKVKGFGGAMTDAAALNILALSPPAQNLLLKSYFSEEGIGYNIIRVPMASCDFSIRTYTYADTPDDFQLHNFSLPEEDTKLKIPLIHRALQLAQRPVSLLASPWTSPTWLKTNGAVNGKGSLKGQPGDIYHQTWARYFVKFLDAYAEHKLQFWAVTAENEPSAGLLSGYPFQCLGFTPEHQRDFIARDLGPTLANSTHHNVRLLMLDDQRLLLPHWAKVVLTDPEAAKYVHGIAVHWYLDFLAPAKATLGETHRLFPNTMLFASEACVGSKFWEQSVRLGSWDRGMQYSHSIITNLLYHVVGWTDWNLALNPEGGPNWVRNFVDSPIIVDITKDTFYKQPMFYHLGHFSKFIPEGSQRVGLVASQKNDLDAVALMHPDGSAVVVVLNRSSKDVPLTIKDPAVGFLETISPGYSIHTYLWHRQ
# Procedure: Comparative assessment of the inhibition abilities of 1–4 against human lysosomal glycosidases in cell lysates (in vitro enzyme assay; see Experimental Section) confirmed the selectivity pattern previously observed for the commercial enzymes: whereas GCase was responsive to μM concentrations of the sp^2-iminosugars, the activity of lysosomal α-glucosidase, α- and β-galactosidases, α- and β-mannosidases, and hexosaminidase was not affected at concentrations of up to 200 μM. The corresponding Ki values were determined at pH 7 and 5 using purified recombinant human GCase and 4-methylumbelliferone (4-MU)-conjugated […] as the substrate (Table 2).
# GCase activities were determined as above using purified human GCase, obtained from Genzyme (Genzyme Japan, Tokyo, Japan) in 0.1 M citrate buffer at pH 5 or pH 7 and 4-methylumbelliferone (4-MU)-conjugated β-D-glucopyranoside as the substrate. The reactions were terminated by adding 0.2 mL of 0.2 M glycine sodium hydroxide buffer (pH 10.7). The liberated 4-methylumbelliferone was measured in a black-well plate with a Perkin Elmer Luminescence Spectrometer, Waltham, MA, USA (excitation wavelength: 340 nm; emission: 460 nm).
# pKa determination = format: physicochemical
structure (smiles),measurement,setting,value
"CCCCCCCCN=C1SCC2C(O)C(O)C(O)CN12 (stereo not drawn) [Compound 4, 1-Deoxy-6-thio-5-N,6-S-(N′-octyliminomethylidene)nojirimycin]",Ki α-Glcase3,[1],n.i.
same,Ki,[2],45 nM
same,Ki α-Galase,[3],n.i.
same,Ki β-Galase,[4],n.i.
same,Ki α-Manase,[5],n.i.
same,fold stronger GCase inhibition of nonreducing vs reducing partner,"[6]; 3 vs 1, 4 vs 2",~20 fold
same,"fold enhancement of GCase inhibition potency upon replacement of O-6 by sulfur, pH 5","[6]; pH 5, 2 vs 1, 4 vs 3",107 fold
same,Ki,"[6]; pH 5, read-out: Ki human GCase, pH 5",59 ± 3.5 nM
same,"fold enhancement of GCase inhibition potency upon replacement of O-6 by sulfur, pH 7","[6]; pH 7, 2 vs 1, 4 vs 3",130 fold
same,Ki,"[6]; pH 7, read-out: Ki human GCase, pH 7",13 ± 1.1 nM
same,pKa,pKa determination,8.3
